Measurements as given in patent publication US7713548B2, “Amorphous solid dispersions” (sanofi-aventis U.S. LLC, priority 2005, dated 2010).

Columns and labels:
[1] = tested on: animal models of rheumatoid arthritis; assay: Animal models of rheumatoid arthritis; format: in vivo; conditions: by modulating the immune response
[2] = Physical stability of amorphous pure drug substance; format: physicochemical; conditions: amorphous forms of the pure drug substance; crystallized over time
[3] = target: peripheral-type benzodiazepine receptors (Homo sapiens, UniProt P30536); conditions: described in U.S. Pat. No. 6,262,045 and 6,395,729; cited from earlier work
Sequence of peripheral-type benzodiazepine receptors (P30536 whole entry): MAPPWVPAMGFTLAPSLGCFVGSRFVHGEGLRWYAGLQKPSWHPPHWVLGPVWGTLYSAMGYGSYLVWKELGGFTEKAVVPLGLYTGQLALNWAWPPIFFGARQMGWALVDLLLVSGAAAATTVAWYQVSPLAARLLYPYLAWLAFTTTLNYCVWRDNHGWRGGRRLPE

physical stability [2]: limited physical stability
SMILES: CN(C)C(=O)Cc1nn(-c2ccccc2)c(=O)c2c1c1ccc(Cl)cc1n2C [7-chloro-N,N,5-trimethyl-4-oxo-3-phenyl-3,5-dihydro-4H-pyridazino[4,5-b]indole-1-acetamide]
pharmacological activity in animal models of rheumatoid arthritis [1]: has shown pharmacological activity | affinity for the peripheral-type benzodiazepine receptors [3]: high affinity
